Legend:
[1] = molecular target: T1, AuroraA-TPX2 (Homo sapiens, UniProt O14965); experiment: AuroraA-TPX2 Homogeneous Time Resolved Fluorescent (HTRF) kinase assay; assay type: biochemical; conditions: average; read-out: AurA_IC50_IP (uM Avg)
T1 construct: 20 μL of AuroraA-TPX2 KD GST for a final volume of about 41 μL; GST
T1 sequence (O14965 133-383 limits assumed): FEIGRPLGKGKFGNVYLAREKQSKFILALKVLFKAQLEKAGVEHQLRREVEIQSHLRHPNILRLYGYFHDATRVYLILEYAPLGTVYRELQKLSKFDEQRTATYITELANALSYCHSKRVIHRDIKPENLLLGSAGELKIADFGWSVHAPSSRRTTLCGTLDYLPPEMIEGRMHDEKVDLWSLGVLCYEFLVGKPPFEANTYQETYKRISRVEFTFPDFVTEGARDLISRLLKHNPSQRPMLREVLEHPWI
T1 sequence (Q9ULW0 1-43 partner limits assumed): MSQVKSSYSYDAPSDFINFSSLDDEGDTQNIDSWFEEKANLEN
In short: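 HTRF read-out (Eu 615 nm to APC 655 nm) of phosphorylated biotin-PLK, detected with 0.02 nM europium anti-phosphoPLK antibody and 0.0005 mg/mL SA-APC after overnight equilibration.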

[2] = molecular target: T2, AuroraB (Homo sapiens, UniProt Q96GD4); experiment: AuroraB Homogeneous Time Resolved Fluorescent (HTRF) kinase assay; assay type: biochemical; conditions: average; read-out: AurB_IC50_IP (uM Avg)
T2 construct: 20 μL of AuroraB FL H is for a final volume of 41 μL; His
In short: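 Full-length His-tagged kinase phosphorylates biotinylated Histone H3 (0.1 μM final) with ATP in pH 7.5 HEPES containing MgCl, MnCl, DTT and BSA for about 90 min. EDTA-containing detection mix with SA-APC and Eu-anti-phosphoHistone H3 then equilibrated about 60 min; HTRF read with 320 nm excitation, emissions 615/655 nm.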

T2 sequence (Q96GD4 whole entry): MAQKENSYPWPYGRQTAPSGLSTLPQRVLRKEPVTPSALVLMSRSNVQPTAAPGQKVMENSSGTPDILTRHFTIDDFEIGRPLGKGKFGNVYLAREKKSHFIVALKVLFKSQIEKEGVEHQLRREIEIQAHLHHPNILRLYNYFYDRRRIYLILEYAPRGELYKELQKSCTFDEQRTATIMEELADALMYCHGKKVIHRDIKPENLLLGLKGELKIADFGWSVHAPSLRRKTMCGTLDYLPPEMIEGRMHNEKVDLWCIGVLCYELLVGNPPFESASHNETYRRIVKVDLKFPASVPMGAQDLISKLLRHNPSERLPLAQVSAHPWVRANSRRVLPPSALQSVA

Structure (SMILES) | IC50 [1] | IC50 [2]
N#Cc1ccc2c(Sc3ccc(Nc4nnc(-c5ccccc5)c5ccccc45)cc3)ccnc2c1 [compound 208, 4-((4-((4-phenyl-1-phthalazinyl)amino)phenyl)thio)-7-quinolinecarbonitrile] | 0.18 µM | 0.007 µM
COc1cnc2c(Oc3ccc(Nc4nnc(-c5ccc(C)c(N)c5)c5ccccc45)cc3)ccnc2c1 [compound 209, 4-(3-amino-4-methylphenyl)-N-(4-((7-(methyloxy)-1,5-naphthyridin-4-yl)oxy)phenyl)-1-phthalazinamine] | 0.012 µM | 0.001 µM
CCc1cc(-c2cc(C)cs2)nnc1Nc1ccc(Oc2ccnc3cc(OC)cnc23)cc1 [compound 210, 4-ethyl-N-(4-((7-(methyloxy)-1,5-naphthyridin-4-yl)oxy)phenyl)-6-(4-methyl-2-thienyl)-3-pyridazinamine] | 0.031 µM | 0.002 µM
COc1cc2nccc(Oc3ccc(Nc4nnc(-c5ccc(C)cc5)c5ccccc45)cc3)c2cc1C(N)=O [compound 211, 7-(methyloxy)-4-((4-((4-(4-methylphenyl)-1-phthalazinyl)amino)phenyl)oxy)-6-quinolinecarboxamide] | 0.006 µM | 0.001 µM
COc1cnc2c(Oc3ccc(Nc4nnc(-c5cn[nH]c5)c5ccccc45)cc3)ccnc2c1 [compound 212, N-(4-((7-(methyloxy)-1,5-naphthyridin-4-yl)oxy)phenyl)-4-(1H-pyrazol-4-yl)-1-phthalazinamine] | 0.478 µM | 0.018 µM
COc1cnc2c(Oc3ccc(Nc4nnc(-c5ccc(OC)c(C)c5)c5ccccc45)cc3)ccnc2c1 [compound 213, 4-(3-methyl-4-(methyloxy)phenyl)-N-(4-((7-(methyloxy)-1,5-naphthyridin-4-yl)oxy)phenyl)-1-phthalazinamine] | 0.079 µM | 0.011 µM
COc1cnc2c(Oc3ccc(Nc4nnc(-c5ccc(F)c(F)c5)c5ccccc45)cc3)ccnc2c1 [compound 214, 4-(3,4-difluorophenyl)-N-(4-((7-(methyloxy)-1,5-naphthyridin-4-yl)oxy)phenyl)-1-phthalazinamine] | 0.085 µM | 0.007 µM
COc1cnc2c(Oc3ccc(Nc4nnc(-c5cncnc5)c5ccccc45)cc3)ccnc2c1 [compound 215, N-(4-((7-(methyloxy)-1,5-naphthyridin-4-yl)oxy)phenyl)-4-(5-pyrimidinyl)-1-phthalazinamine] | 0.743 µM | 0.024 µM
COc1cnc2c(Oc3ccc(Nc4nnc(-c5cnn(C)c5)c5ccccc45)cc3)ccnc2c1 [compound 216, N-(4-((7-(methyloxy)-1,5-naphthyridin-4-yl)oxy)phenyl)-4-(1-methyl-1H-pyrazol-4-yl)-1-phthalazinamine] | 0.16 µM | 0.006 µM
N#Cc1ccc(-c2nnc(Nc3ccc(Oc4ccnc5cc(C#N)ccc45)cc3)c3ccccc23)cc1 [compound 217, 4-((4-((4-(4-cyanophenyl)-1-phthalazinyl)amino)phenyl)oxy)-7-quinolinecarbonitrile] | 0.454 µM | 0.016 µM
COc1cnc2c(Oc3ccc(Nc4nnc(-c5ccccc5)c5ccsc45)cc3)ccnc2c1 [compound 218, N-(4-((7-(methyloxy)-1,5-naphthyridin-4-yl)oxy)phenyl)-4-phenylthieno[2,3-d]pyridazin-7-amine] | 0.027 µM | 0.003 µM
COc1cnc2c(Oc3ccc(Nc4nnc(-c5cccc(Cl)c5)c5ccccc45)cc3)ccnc2c1 [compound 219, 4-(3-chlorophenyl)-N-(4-((7-(methyloxy)-1,5-naphthyridin-4-yl)oxy)phenyl)-1-phthalazinamine] | 0.051 µM | 0.01 µM
COc1cnc2c(Oc3ccc(Nc4nnc(-c5ccc(F)cc5)c5ccccc45)cc3)ccnc2c1 [compound 220, 4-(4-fluorophenyl)-N-(4-((7-(methyloxy)-1,5-naphthyridin-4-yl)oxy)phenyl)-1-phthalazinamine] | 0.047 µM | 0.004 µM
CCc1ccc(-c2nnc(Nc3ccc(Oc4ccnc5cc(OC)cnc45)cc3)c3ccccc23)cc1 [compound 221, 4-(4-ethylphenyl)-N-(4-((7-(methyloxy)-1,5-naphthyridin-4-yl)oxy)phenyl)-1-phthalazinamine] | 0.026 µM | 0.007 µM
COc1cnc2c(Oc3ccc(Nc4nnc(-c5ccc(Cl)cc5)c5ccccc45)cn3)ccnc2c1 [compound 222, 4-(4-chlorophenyl)-N-(6-((7-(methyloxy)-1,5-naphthyridin-4-yl)oxy)-3-pyridinyl)-1-phthalazinamine] | 0.047 µM | 0.006 µM
COc1cnc2c(Oc3ccc(Nc4nnc(-c5ccnn5C)c5ccccc45)cc3)ccnc2c1 [compound 223, N-(4-((7-(methyloxy)-1,5-naphthyridin-4-yl)oxy)phenyl)-4-(1-methyl-1H-pyrazol-5-yl)-1-phthalazinamine] | 1.33 µM | 0.039 µM
COc1cnc2c(Oc3ccc(Nc4nnc(-c5ccc(C)c(Cl)c5)c5ccccc45)cc3)ccnc2c1 [compound 224, 4-(3-chloro-4-methylphenyl)-N-(4-((7-(methyloxy)-1,5-naphthyridin-4-yl)oxy)phenyl)-1-phthalazinamine] | 0.034 µM | 0.011 µM
COc1cc2nccc(Oc3ccc(Nc4nnc(-c5ccccc5)c5ccccc45)cc3)c2cc1C(N)=O [compound 225, 7-(methyloxy)-4-((4-((4-phenyl-1-phthalazinyl)amino)phenyl)oxy)-6-quinolinecarboxamide] | 0.023 µM | 0.004 µM
COc1cnc2c(Oc3ccc(Nc4nnc(-c5cccc(C(=O)N(C)C)c5)c5ccccc45)cc3)ccnc2c1 [compound 226, N,N-dimethyl-3-(4-((4-((7-(methyloxy)-1,5-naphthyridin-4-yl)oxy)phenyl)amino)-1-phthalazinyl)benzamide] | 0.187 µM | 0.014 µM
COc1cnc2c(Oc3ccc(Nc4nnc(-c5ccc(OC)c(F)c5)c5ccccc45)cc3)ccnc2c1 [compound 227, 4-(3-fluoro-4-(methyloxy)phenyl)-N-(4-((7-(methyloxy)-1,5-naphthyridin-4-yl)oxy)phenyl)-1-phthalazinamine] | 0.051 µM | 0.003 µM
COc1cnc2c(Oc3ccc(Nc4nnc(-c5ccc(Cl)cn5)c5ccccc45)cc3)ccnc2c1 [compound 228, 4-(5-chloro-2-pyridinyl)-N-(4-((7-(methyloxy)-1,5-naphthyridin-4-yl)oxy)phenyl)-1-phthalazinamine] | 0.034 µM | 0.004 µM
CCc1ccc(-c2nnc(Nc3ccc(Oc4ccnc5cc(OC)cnc45)cc3)c3ccccc23)s1 [compound 229, 4-(5-ethyl-2-thienyl)-N-(4-((7-(methyloxy)-1,5-naphthyridin-4-yl)oxy)phenyl)-1-phthalazinamine] | 0.024 µM | 0.007 µM
c1ccc(-c2nnc(Nc3ccc(Oc4ccnc5c4NCCC5)cc3)c3ccccc23)cc1 [compound 230, 4-phenyl-N-(4-(5,6,7,8-tetrahydro-1,5-naphthyridin-4-yloxy)phenyl)-1-phthalazinamine] | 5 µM | 0.031 µM
N#Cc1ccc2c(Oc3ccc(Nc4nnc(-c5ccc(Cl)c(C#N)c5)c5ccccc45)cc3)ccnc2c1 [compound 231, 4-((4-((4-(4-chloro-3-cyanophenyl)-1-phthalazinyl)amino)phenyl)oxy)-7-quinolinecarbonitrile] | 0.379 µM | 0.032 µM
COc1cnc2c(Sc3ccc(Nc4nnc(-c5ccc(Cl)cc5)c5ccccc45)cc3)ccnc2c1 [compound 232, 4-(4-chlorophenyl)-N-(4-((7-(methyloxy)-1,5-naphthyridin-4-yl)thio)phenyl)-1-phthalazinamine] | 0.036 µM | 0.015 µM
COc1cnc2c(Oc3ccc(Nc4nnc(-c5ccc(Cl)cc5C)c5ccccc45)cc3)ccnc2c1 [compound 233, 4-(4-chloro-2-methylphenyl)-N-(4-((7-(methyloxy)-1,5-naphthyridin-4-yl)oxy)phenyl)-1-phthalazinamine] | 0.845 µM | 0.021 µM
COc1cnc2c(Oc3ccc(Nc4nnc(-c5ccccc5)cc4C(C)C)cc3)ccnc2c1 [compound 234, 4-(1-methylethyl)-N-(4-((7-(methyloxy)-1,5-naphthyridin-4-yl)oxy)phenyl)-6-phenyl-3-pyridazinamine] | 0.173 µM | 0.006 µM
COc1cnc2c(Oc3ccc(Nc4nnc(-c5ccc(Cl)nc5)c5ccccc45)cc3)ccnc2c1 [compound 235, 4-(6-chloro-3-pyridinyl)-N-(4-((7-(methyloxy)-1,5-naphthyridin-4-yl)oxy)phenyl)-1-phthalazinamine] | 0.123 µM | 0.003 µM
COc1cnc2c(Oc3ccc(Nc4nnc(-c5ccc(Cl)c(C)c5)c5ccccc45)cc3)ccnc2c1 [compound 236, 4-(4-chloro-3-methylphenyl)-N-(4-((7-(methyloxy)-1,5-naphthyridin-4-yl)oxy)phenyl)-1-phthalazinamine] | 0.027 µM | 0.008 µM
